The source of these data is the METLIN SMRT retention time set (Domingo-Almenara et al. 2019).

Molecules are shown by their SMILES.

The data set in a line: gradient 5% acetonitrile 3 min, to 50% in 2 min, to 85% in 15 min, held 3 min, 100 µL/min. Particulars: column: Zorbax Extend-C18 2.1 x 50 mm; eluents: water / acetonitrile, 0.1% formic acid. In short, it runs like this:
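Retention time was recorded from adduct peaks, which were picked computationally and each inspected manually. Pure standards ran in mixtures of ~100 molecules on HPLC coupled to a quadrupole time-of-flight mass spectrometer, in positive and negative ionization mode, through a Zorbax Extend-C18 column (2.1 × 50 mm, 1.8 μm) at 100 μL/min. Eluents were water and acetonitrile, each with 0.1% formic acid.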
The compound `O=C(CCn1nnc2cc(-c3noc(COc4ccc(Cl)cc4)n3)ccc21)N1CCOCC1` gave an RP-LC retention time of 866 s.

`COC(=O)C1=CN(c2ccc(C)cc2)c2cc(F)ccc2S1(=O)=O` gave an RP-LC retention time of 946 s.

In turn, `COc1cc(NC(=O)C2Nc3cc(F)ccc3S(=O)(=O)N2)cc(OC)c1OC` (configuration not stated) showed an RP-LC retention time of 718 s.

In turn, `CCOc1ccc(CCNC(=O)CN2C(=O)CSc3cccn3-c3ccccc32)cc1OCC` came in with an RP-LC retention time of 939 s.

`O=C(Nc1cccn2c(C3CCC3)nnc12)c1cnccn1` gave an RP-LC retention time of 692 s.

For the compound `CCc1cc2c(cc(C(=O)NCc3cccs3)n2C)s1`, the RP-LC retention time worked out at 1010 s.

Compound `Cc1nc(C(=O)Nc2cccc(F)c2)c(C)n1C1CCN(S(C)(=O)=O)CC1` had an RP-LC retention time of 706 s.

For the compound `CCCn1nnc(NCc2ccc(-c3ccc(Cl)cc3Cl)o2)n1`, the RP-LC retention time was 1200 s.

In the case of `CCCCOCCCNCc1ccc2c(c1)n(C)c(=O)n2C`, the RP-LC retention time came to 593 s.

For `COc1cc(NC(=O)COc2cc(C)nc(N3CCCC3)n2)cc(OC)c1OC`, the RP-LC retention time was 602 s.

In turn, `COC(=O)c1ccc2c(=O)n(-c3cc(F)cc(F)c3)c(N3CCOCC3)nc2c1` displayed an RP-LC retention time of 945 s.

As to `CCCN(CC1CCOC1)C(=O)Nc1cc(C)ccc1OC` (configuration not stated), the RP-LC retention time was found to be 874 s.

In the case of `Cc1cc(C)c2c(n1)nn1c(N3CCN(c4ccccn4)CC3)cc(C)nc21`, the RP-LC retention time stood at 561 s.

`CCNC(=O)CCc1nc2ccccc2n(CC(=O)NCCc2ccc(Cl)cc2)c1=O` displayed an RP-LC retention time of 773 s.

`O=C(Cn1cccc1-c1nnc(-c2ccccc2)o1)NCCc1ccccc1`: the RP-LC retention time is 950 s.

In turn, `COCCOCC(=O)N1CC(Oc2ccc(-c3nc(C)no3)cc2)C1` had an RP-LC retention time of 679 s.

In turn, `COc1ccc(OC)c(NC(=O)C2CC(=O)N(c3n[nH]c4cccc(F)c34)C2)c1` (configuration not stated) showed an RP-LC retention time of 732 s.

In turn, `CC(C)(C)c1ccc(-c2noc(Cn3c(=O)n(Cc4ccccc4)c(=O)c4sccc43)n2)cc1` registered an RP-LC retention time of 1330 s.

`CCNC(=O)c1cc2c(-c3cc(OCCN4CCCC4)c(Cl)cc3Cl)nc(N)nc2s1` displayed an RP-LC retention time of 711 s.

Regarding `Cc1ccc2c(c1)C(c1ccccc1)N(C(=O)c1ccc([N+](=O)[O-])cc1)CC(=O)N2` (configuration not stated), the RP-LC retention time amounted to 834 s.

For `O=C(NCc1ccccc1)N1CCC(Nc2cccnc2)C1` (configuration not stated), the RP-LC retention time amounted to 580 s.

Turning to `Cn1c(=O)oc2cc(-c3noc(-c4ccc(C#N)cc4)n3)ccc21`, the RP-LC retention time worked out at 988 s.

As to `O=C(Nc1ccc(F)c(Cl)c1)N1CCCC1c1nc(-c2ccc(F)cc2F)no1` (configuration not stated), the RP-LC retention time is 1070 s.

For the compound `O=C(CC1CCN(C(=O)c2cc(F)ccc2F)C1)NC1CC1` (configuration not stated), the RP-LC retention time worked out at 630 s.

Consider `O=C(C1CCCO1)N1CCC(OCc2nc(-c3ccccc3)no2)CC1` (configuration not stated), for which the RP-LC retention time was determined as 778 s.

In turn, `Cc1ccc(CCNC(=O)CN2C(=O)C3CCCCN3c3ccc(S(=O)(=O)N(C)C)cc32)cc1` (configuration not stated) returned an RP-LC retention time of 943 s.

In turn, `COc1ccc(CCNc2nc(-c3ccc(Cl)cc3)cs2)cc1OC` gave an RP-LC retention time of 1050 s.

`Cc1ccc(Nc2cc(N3CCC(C(=O)N4CCC5(CC4)OCCO5)CC3)ncn2)cc1` came in with an RP-LC retention time of 645 s.

`CCOC(=O)c1[nH]c(C)c(CN(Cc2ccco2)C(=O)Cc2ccc(F)cc2)c1C`: the RP-LC retention time worked out at 1020 s.

Consider `COc1ncccc1CNC(=O)Cc1cccnc1`, for which the RP-LC retention time came to 538 s.

Compound `COc1nn(C)cc1C(=O)NCc1ccco1` had an RP-LC retention time of 599 s.

Compound `NC(=O)c1oc2ccccc2c1NC(=O)c1cc(=O)c2ccccc2o1` yielded an RP-LC retention time of 805 s.

`Cc1nnc(C2CCCN(C(=O)c3ccc(S(=O)(=O)N(C)C)cc3)C2)s1` (configuration not stated) gave an RP-LC retention time of 642 s.

Compound `COc1cccc(CNS(=O)(=O)c2ccc3c(c2)CCCC(=O)N3)c1` had an RP-LC retention time of 714 s.

In the case of `CCc1ccccc1S(=O)(=O)Nc1ccc2c(c1)CCC(=O)N2CCOC`, the RP-LC retention time came to 816 s.

Compound `COC(=O)c1cccc(NC(=O)CSc2nccc(N3CCN(c4ccccc4OC)CC3)n2)c1` registered an RP-LC retention time of 695 s.

For the compound `CC(C)n1c(=O)sc2cc(S(=O)(=O)N3CCC(C(=O)N(C)Cc4ccccc4)CC3)ccc21`, the RP-LC retention time was determined as 997 s.

Consider `CN(C)[C@@H]1CN(C(=O)c2ccc(F)c(F)c2)C[C@H]1CO`, for which the RP-LC retention time is 531 s.

`Cc1ccccc1NC(=O)c1cccn1Cc1noc(C2CC2)n1` displayed an RP-LC retention time of 880 s.

As for `Cc1cc(-c2nnc(-c3ccc(F)cc3)o2)c(C)n1CC(=O)NCc1cccs1`, the RP-LC retention time stood at 905 s.

With `CCCNC(=O)c1cc2c(-c3cccs3)nn(-c3ccccc3)c2n1CC`, the RP-LC retention time is 1100 s.

`CCOC(=O)c1noc2nc(C)nc(NCC3CCN(Cc4ccc(C)cc4)CC3)c12` yielded an RP-LC retention time of 705 s.

As to `CCOc1nccnc1N1CCC(NC(=O)Cc2cccnc2)C1` (configuration not stated), the RP-LC retention time worked out at 534 s.

In turn, `CCN1CCN(c2ncc3c(n2)CCN(Cc2cccc(C)c2)C3)CC1` came in with an RP-LC retention time of 529 s.

Compound `CC(=O)Nc1nsc(N2CCC(C(=O)NCc3ccc(F)cc3)CC2)n1` displayed an RP-LC retention time of 649 s.

Turning to `CSc1ccc(CNC(=O)Cc2nnc(-c3cccc(F)c3)o2)cc1`, the RP-LC retention time turned out to be 794 s.

Consider `CC(=O)NC(C)c1nc(-c2ccccc2Cl)no1` (configuration not stated), for which the RP-LC retention time stood at 687 s.

The compound `CCc1ccccc1NC(=O)Cn1nc2nc(N3CCCC(C)C3)ccn2c1=O` (configuration not stated) yielded an RP-LC retention time of 838 s.

In the case of `Cc1ncn(CC(=O)Nc2ccccc2F)c(=O)c1C`, the RP-LC retention time amounted to 628 s.

For `CN(C)C[C@@H]1CN(S(C)(=O)=O)C[C@H]1NC(=O)c1ccsc1`, the RP-LC retention time turned out to be 569 s.

Consider `CN(Cc1ccccc1)c1ccc(-c2noc(CN3CCN(c4ccccc4)CC3)n2)cn1`, for which the RP-LC retention time was 1100 s.

As for `Cc1c(CNCCCN2CCCC2=O)c(C(=O)O)c(C)n1Cc1cccc(Cl)c1`, the RP-LC retention time was found to be 665 s.

`O=C(NC1CC1)c1nc(-c2cccs2)cs1` showed an RP-LC retention time of 835 s.

Take `Cc1nn(CC(=O)N(C)Cc2ccccc2)c(=O)c2nc(-c3ccccc3)sc12`: the RP-LC retention time turned out to be 942 s.

For `COc1cccc(-c2noc(Cc3nnc(-c4cccc(C)c4)o3)n2)c1OC`, the RP-LC retention time came out at 961 s.

`COc1ccc(OC)c(NC(=O)CN2CCc3[nH]c4c(C)ccc(C)c4c(=O)c3C2)c1` had an RP-LC retention time of 693 s.

On to `O=C(Nc1ccc(F)cc1)Nc1nccn(-c2ccc(Br)cc2)c1=O`, for which the RP-LC retention time stood at 985 s.

As to `Cc1nc(-c2csc(S(=O)(=O)N3CCCC(C(=O)Nc4ccc(F)cc4C)C3)c2)no1` (configuration not stated), the RP-LC retention time turned out to be 892 s.

Compound `O=C(Cc1cccn1-c1ccccc1)NCc1cc(F)ccc1F` registered an RP-LC retention time of 936 s.

The compound `O=C1CC(NC(=O)Nc2ccccc2C(F)(F)F)CN1` (configuration not stated) gave an RP-LC retention time of 595 s.

The compound `Cc1ccc(NC(=O)CN2C(=O)CCCc3cc(S(=O)(=O)N4CCCC4)ccc32)c(Cl)c1` came in with an RP-LC retention time of 912 s.

The compound `O=C(NCc1ccccc1)Nc1c(-c2ccc(F)cc2)nc2ccccn12` returned an RP-LC retention time of 661 s.

For the compound `CCOc1ccc(-c2c(C#N)c(N)nc(SCC(=O)OCc3ccccc3)c2C#N)cc1`, the RP-LC retention time came out at 997 s.

Consider `CC(C)CCNC(=O)Cc1cn(C)c2ncccc12`, for which the RP-LC retention time was found to be 679 s.

In turn, `COc1ccc(-c2nc3cnccn3c2Nc2ccccc2OC)cc1` yielded an RP-LC retention time of 863 s.

For the compound `O=C(C1CCCN(c2nccnc2Oc2ccccc2)C1)N1CCN(c2cccc(Cl)c2)CC1` (configuration not stated), the RP-LC retention time turned out to be 1180 s.

Compound `CCOC(=O)C(=O)Nc1cc(Cl)ccc1C#N` came in with an RP-LC retention time of 763 s.

Take `COCc1nc2cccnc2n1C1CCN(C(=O)Nc2ccccc2Br)CC1`: the RP-LC retention time was 724 s.

`Cn1c(=O)cc(N2CCC[C@@H](N)C2)n(Cc2ccccc2C#N)c1=O` returned an RP-LC retention time of 641 s.

On to `Cc1ccccc1Nc1c(-c2ccc(O)cc2)nc2ccccn12`, for which the RP-LC retention time was 653 s.

`CCc1ccc(C2=C(C)C(N3CCCN(C(=O)NC(C)C)CC3)=NS2(=O)=O)cc1` registered an RP-LC retention time of 849 s.

The compound `O=C(Cc1nnc(-c2cnccn2)o1)NCc1ccccc1` came in with an RP-LC retention time of 635 s.

The compound `Cc1cc(NC(=O)C(=O)c2cccn2C)ccc1Br` had an RP-LC retention time of 1120 s.

As to `O=C(C1CC1)N1CCc2sc(S(=O)(=O)NCc3ccccc3Cl)cc2C1`, the RP-LC retention time stood at 855 s.

In the case of `COc1ncc(C(=O)Nc2ccc(F)cc2C)c(C)n1`, the RP-LC retention time was 638 s.

For `CCOC(=O)c1cc([N+](=O)[O-])sc1NC(=O)c1nc2ccccc2s1`, the RP-LC retention time came out at 1270 s.

As to `Cc1noc(N)c1-c1ccc(Cl)cc1`, the RP-LC retention time was 807 s.

`Cn1c(=O)c(N2CCN(C(=O)c3cccc(F)c3)CC2)nc2ccccc21`: the RP-LC retention time stood at 864 s.

On to `Cc1noc(-c2ccc(OC3CN(C(=O)Nc4ccccc4)C3)cc2)n1`, for which the RP-LC retention time was found to be 737 s.

Compound `c1ccc2c(c1)nnn1c3cnccc3nc21` showed an RP-LC retention time of 606 s.

`Cc1cc(N2CCN(C)CC2)nc2ccc(NC(=S)NCc3ccc4c(c3)OCO4)cc12`: the RP-LC retention time worked out at 586 s.

`COc1ccc(-n2nnc(-c3nc(-c4ccccc4OC)cs3)c2N)cc1`: the RP-LC retention time is 1090 s.
